Data on 23 compounds can be found in ChEMBL document CHEMBL5500381, “Antiviral drug discovery: Pyrimidine entry inhibitors for Zika and dengue viruses” (Eur J Med Chem, 2024).

Each structure is given as a SMILES string. Values after ≈ are worked out from the molar mass of the structure shown.

Data set [1] in a line: Cytotoxicity against African green monkey Vero cells assessed as cell viability measured after 72 hrs by MTT assay. The format is toxicity, cell-based. The note with it: chlorocebus sabaeus. On the technique in general: Formazan colour is commonly taken as a measure of viable cells.
The test system of the next data set is dengue virus type 2. In words: Anti-viral activity against DENV-2 Thailand/16681/1984 strain infected in african green monkey Vero cells at 0.1 MOI assessed as reduction in virus yield measured after 48 hrs by virus reduction assay. The format is functional, organism-based. As to conditions: Thailand/16681/1984, Vero.
Data set [2] is described as follows: Selectivity index, ratio of CC50 for cytotoxicity against African green monkey Vero cells to EC50 for anti-viral activity against DENV-2 Thailand/16681/1984 strain. As to conditions: read-out: Selectivity Index. The format is toxicity, cell-based.
Another data set relates to Zika virus. The data set is described as follows: Anti-viral activity against ZIKV Argentine strain INEVH116141 infected in african green monkey Vero cells at 0.1 MOI assessed as reduction in virus yield measured after 48 hrs by virus reduction assay. Format: functional, organism-based.
Data set [3] is described as follows: Selectivity index, ratio of CC50 for cytotoxicity against African green monkey Vero cells to EC50 for anti-viral activity against ZIKV Argentine strain INEVH116141. Format: toxicity, cell-based. As to conditions: read-out: Selectivity Index.
The nature of data set [4]: Solubility of the compound in phosphate-buffered saline solution (PBS,pH 7.4) incubated for 24 hrs by shake-flask method. The format is physicochemical.
Data set [5] in a line: Solubility of the compound in simulated intestinal fluid (SIF,pH 6.8) incubated for 24 hrs by shake-flask method. Format: ADME.
A short description of data set [6]: Solubility of the compound in simulated gastric fluid (SGF,pH 1.2) incubated for 24 hrs by shake-flask method. Format: ADME.
A short description of data set [7]: Permeability of the compound by PAMPA assay. Format: ADME. For orientation: The PAMPA barrier holds no transporters, so it reflects passive diffusion.
The nature of data set [8]: Plasma stability in human plasma measured at 4 hrs. The format is ADME, cell-free.
Data set [9] in a line: Plasma stability in mouse plasma measured at 4 hrs. Format: ADME, cell-free.

The term CC50 denotes the concentration at which the toxic effect on the cells reaches its halfway point. Usually EC50 stands for the concentration needed to bring the measured effect to its halfway point. As to `FC(F)(F)c1cc(Nc2ccc(Cl)cc2)nc(NCCN2CCCCC2)n1`, the CC50 at 72 h in [1] is 18.8 µM. Besides, the EC50 with dengue virus type 2 and with Zika virus was 10 µM in each case. For the same compound, the selectivity ratio in data set [2] and in data set [3] was 1.88 in each case.

In the case of `CC1(C)CC(Nc2nc(Nc3ccc(-c4ccccc4)cc3)cc(C(F)(F)F)n2)CC(C)(C)N1`, the CC50 at 72 h in [1] came to 2.06 µM.

As for `CC1(C)CC(Nc2nccc(Nc3ccc(Cl)cc3)n2)CC(C)(C)N1`, the CC50 at 72 h in data set [1] was 5.19 µM. Also, the EC50 was found to be 3.15 µM with dengue virus type 2 and 2.48 µM in the data set with Zika virus. The selectivity ratio is 1.64 in data set [2] and 2.09 in data set [3].

Turning to `O=C(Nc1cc(C(F)(F)F)nc(NCCN2CCCCC2)n1)c1ccc(Cl)cc1`, the CC50 at 72 h in [1] worked out at 20.8 µM. The concentration for a half-maximal effect (EC50) with dengue virus type 2 and in the data set with Zika virus was > 20 µM each time. The selectivity ratio in data set [2] and in [3] was < 1.05 throughout.

On to `CC1(C)CC(Nc2ncnc(Nc3ccc(-c4ccccc4)cc3)n2)CC(C)(C)N1`, for which the CC50 at 72 h in data set [1] turned out to be 5.01 µM.

For `Nc1ccc(CNc2cc(C(F)(F)F)nc(NCCN3CCCCC3)n2)cc1`, in data set [1], the CC50 at 72 h was 8.92 µM.

On to `FC(F)(F)c1cc(NCc2cccnc2)nc(NCCN2CCCCC2)n1`, for which the half-maximal cytotoxic concentration (CC50) at 72 h in data set [1] was > 200 µM. For the same compound, the EC50 in the data set with dengue virus type 2 and in the data set with Zika virus was > 50 µM in each case. Also, the selectivity ratio in data set [2] and in data set [3] was < 4 each time.

What is called solubility (thermodynamic) is the concentration in solution at equilibrium with solid. Turning to `c1ccc(-c2ccc(Nc3ccnc(NCCN4CCCCC4)n3)cc2)cc1`, the thermodynamic solubility at 24 h was 32 µg/mL (≈ 85.7 µM) in [4], 324 µg/mL (≈ 867 µM) in data set [5] and 108 µg/mL (≈ 289 µM) in data set [6].

Take `CC1(C)CC(Nc2nc(C#N)cc(Nc3ccc(-c4ccccc4)cc3)n2)CC(C)(C)N1`: in data set [1], the CC50 at 72 h was determined as 7.5 µM. Moreover, the EC50 is 1.96 µM in the data set with dengue virus type 2 and 4.4 µM in the data set on Zika virus. Further, the selectivity ratio in [2] was 3.82; in data set [3] it was 1.7.

Regarding `FC(F)(F)c1cc(Nc2ccc(-c3ccccc3)cc2)nc(NCCN2CCCCC2)n1`, the CC50 at 72 h in data set [1] was 5.74 µM. The results for the EC50 with dengue virus type 2 and in the data set with Zika virus were 0.76 µM and 1.11 µM, respectively. Further, the selectivity ratio in data set [2] amounted to 7.55; in data set [3], 5.12. The solubility (thermodynamic) at 24 h in [4] was 4 µg/mL (≈ 9.06 µM); in data set [5], 10 µg/mL (≈ 22.7 µM); in [6], 506 µg/mL (≈ 1150 µM). For the same compound, the permeability entry in data set [7] was “Impermeable”. Besides, the Stability result in data set [8] and in data set [9] was “Stable” throughout.

`Nc1ccc(-c2ccc(Nc3cc(C(F)(F)F)nc(NCCN4CCCCC4)n3)cc2)cc1`: the CC50 at 72 h in data set [1] is 17.8 µM. Besides, the EC50 in the data set with dengue virus type 2 and in the data set with Zika virus was > 10 µM throughout. Besides, the selectivity ratio in data set [2] and in data set [3] was < 2 in each case.

For the compound `Fc1ccc(CNc2cc(C(F)(F)F)nc(NCCN3CCCCC3)n2)cc1`, the CC50 at 72 h in data set [1] came out at 47.6 µM. The EC50 with dengue virus type 2 is 16.1 µM; in the data set on Zika virus, 16.8 µM. Moreover, the selectivity ratio stood at 2.96 in data set [2] and 2.84 in data set [3].

`FC(F)(F)c1cc(NCc2ccc(-c3ccccc3)cc2)nc(NCCN2CCCCC2)n1`: the CC50 at 72 h in data set [1] came to 36.9 µM. Also, the EC50 in the data set on dengue virus type 2 and with Zika virus was > 20 µM in each case. For the same compound, the selectivity ratio in [2] and in data set [3] was < 2 throughout.

For the compound `CC1(C)CC(Nc2nccc(Nc3ccc(-c4ccccc4)cc3)n2)CC(C)(C)N1`, the solubility (thermodynamic) at 24 h in data set [4] was 93 µg/mL (≈ 232 µM); in data set [5], 580 µg/mL (≈ 1440 µM); in data set [6] it was 2280 µg/mL (≈ 5690 µM).

Turning to `CC1(C)CC(Nc2nccc(NCc3ccc(Cl)cc3)n2)CC(C)(C)N1`, the CC50 at 72 h in data set [1] came out at 7.2 µM. Further, the EC50 stood at 4.67 µM in the data set on dengue virus type 2 and 8.14 µM with Zika virus. The results for the selectivity ratio in [2] and in [3] were 1.54 and 0.88, respectively.

On to `Fc1cc(Cl)ccc1CNc1cc(C(F)(F)F)nc(NCCN2CCCCC2)n1`, for which, in data set [1], the CC50 at 72 h stood at 9.07 µM.

In the case of `Cc1ccc(CNc2cc(C(F)(F)F)nc(NCCN3CCCCC3)n2)cc1`, the CC50 at 72 h in data set [1] amounted to 49 µM. Moreover, the EC50 was > 20 µM in the data set with dengue virus type 2 and 13.5 µM with Zika virus. The selectivity ratio was < 2.5 in [2] and 3.63 in data set [3].

Consider `N#Cc1cc(Nc2ccc(-c3ccccc3)cc2)nc(NCCN2CCCCC2)n1`, for which the CC50 at 72 h in data set [1] was 25.4 µM. In addition, the EC50 with dengue virus type 2 is 8.06 µM; with Zika virus, 4.31 µM. In addition, the selectivity ratio in data set [2] is 3.15; in data set [3], 5.89.

In the case of `c1ccc(-c2ccc(Nc3nc(NCCN4CCCCC4)nc4ccsc34)cc2)cc1`, the CC50 at 72 h in [1] was 7.5 µM. Besides, the EC50 in the data set with dengue virus type 2 worked out at 8.15 µM; in the data set on Zika virus, 4.1 µM. The selectivity ratio amounted to 0.92 in [2] and 1.83 in [3].

Take `FC(F)(F)c1cc(Nc2ccc(C3CCCCC3)cc2)nc(NCCN2CCCCC2)n1`: in [1], the CC50 at 72 h is 8.39 µM.

As to `CN(Cc1ccc(Cl)cc1)c1cc(C(F)(F)F)nc(NCCN2CCCCC2)n1`, the CC50 at 72 h in [1] is 8.18 µM.

Regarding `CC1(C)CC(Nc2nc(Nc3ccc(-c4ccccc4)cc3)c3sccc3n2)CC(C)(C)N1`, the CC50 at 72 h in data set [1] worked out at 6.4 µM. The EC50 came out at 4.95 µM in the data set with dengue virus type 2 and 4.15 µM with Zika virus. For the same compound, the selectivity ratio in data set [2] is 1.3; in data set [3], 1.54.

Consider `COc1ccc(CNc2cc(C(F)(F)F)nc(NCCN3CCCCC3)n2)cc1`, for which the CC50 at 72 h in data set [1] is 38.2 µM. Further, the EC50 in the data set on dengue virus type 2 is > 20 µM; in the data set on Zika virus, 12.5 µM. For the same compound, the selectivity ratio is < 2 in data set [2] and 3.07 in data set [3].
